Assay results reported in BindingDB's records for doi:10.1124/jpet.102.038075 (Nih, 2002).
Values joined by “and” are separate entries in the source; they are usually repeats but may differ in a detail not shown here. Equal values may be shown once. Bridge positions count the residues as written; N and C are the ends. Square brackets hold non-standard residues; d marks the D form. Peptide text beside a SMILES is read from it. Nle = CCCC[C@H](N)C(=O)O

Assays:
[1] = biological target: T1, Vasoactive intestinal polypeptide receptor 2 (Homo sapiens, UniProt P41587)
T1 sequence (P41587 whole entry): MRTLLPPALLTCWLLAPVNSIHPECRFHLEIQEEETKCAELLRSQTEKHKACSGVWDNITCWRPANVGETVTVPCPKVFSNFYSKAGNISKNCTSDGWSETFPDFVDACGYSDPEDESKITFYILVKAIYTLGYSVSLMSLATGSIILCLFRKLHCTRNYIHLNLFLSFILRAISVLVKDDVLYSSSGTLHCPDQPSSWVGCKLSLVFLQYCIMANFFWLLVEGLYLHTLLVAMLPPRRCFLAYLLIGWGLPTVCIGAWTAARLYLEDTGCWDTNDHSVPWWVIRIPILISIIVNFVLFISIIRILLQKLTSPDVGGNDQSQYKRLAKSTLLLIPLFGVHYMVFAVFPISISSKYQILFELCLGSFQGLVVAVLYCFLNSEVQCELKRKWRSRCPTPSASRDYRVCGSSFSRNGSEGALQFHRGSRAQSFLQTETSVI

[2] = biological target: T2, Vasoactive intestinal polypeptide receptor 2 (Rattus norvegicus, UniProt P35000)
T2 sequence (P35000 whole entry): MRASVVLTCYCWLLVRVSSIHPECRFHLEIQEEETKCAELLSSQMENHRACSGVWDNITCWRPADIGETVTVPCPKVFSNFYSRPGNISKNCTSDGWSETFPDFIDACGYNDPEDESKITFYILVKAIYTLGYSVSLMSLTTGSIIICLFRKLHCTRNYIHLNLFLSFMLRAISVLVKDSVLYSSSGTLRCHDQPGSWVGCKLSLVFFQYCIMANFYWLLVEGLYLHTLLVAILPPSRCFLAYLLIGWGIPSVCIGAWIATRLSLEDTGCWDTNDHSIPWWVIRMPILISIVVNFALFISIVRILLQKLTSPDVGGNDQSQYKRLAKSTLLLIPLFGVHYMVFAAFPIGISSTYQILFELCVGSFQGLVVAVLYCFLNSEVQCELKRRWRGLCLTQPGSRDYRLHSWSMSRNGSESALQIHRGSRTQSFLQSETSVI

[3] = biological target: T3, Vasoactive intestinal polypeptide receptor 1 (Homo sapiens, UniProt P32241)
T3 sequence (P32241 whole entry): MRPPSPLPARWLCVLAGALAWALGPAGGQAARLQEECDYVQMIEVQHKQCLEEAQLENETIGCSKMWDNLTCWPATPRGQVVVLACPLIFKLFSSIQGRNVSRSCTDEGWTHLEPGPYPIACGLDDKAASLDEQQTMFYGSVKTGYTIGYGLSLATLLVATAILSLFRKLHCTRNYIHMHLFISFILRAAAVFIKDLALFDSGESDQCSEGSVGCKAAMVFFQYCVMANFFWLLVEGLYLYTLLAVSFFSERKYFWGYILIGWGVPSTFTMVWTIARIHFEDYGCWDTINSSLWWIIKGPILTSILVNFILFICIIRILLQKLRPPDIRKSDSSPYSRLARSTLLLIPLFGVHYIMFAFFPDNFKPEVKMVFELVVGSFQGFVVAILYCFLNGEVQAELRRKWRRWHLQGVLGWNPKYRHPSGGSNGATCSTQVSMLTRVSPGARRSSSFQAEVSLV

Row | Compound | Ki [1] | Ki [2] | Ki [3]
1 | H-HSDAVFTDNYTRLAKQMAVKKYLNSILN-NH2 [VIP Ala14] | 47.9 nM and 110 nM and 166 nM |  | 
2 | H-HSDAAFTDNYTRLRKQMAVKKYLNSILN-NH2 [VIP Ala5] | 12.2 nM and 48.1 nM and 120 nM | 13.2 nM and 23 nM | 
3 | H-HSDAVFTDNYTRLRKQMAVKKYLNSALN-NH2 [VIP Ala26] | 9.1 nM and 11.8 nM and 15.2 nM and 50.1 nM and 49 nM and 27.9 nM |  | 
4 | CC[C@H](C)[C@H](NC(=O)[C@H](CO)NC(=O)[C@H](CC(N)=O)NC(=O)[C@H](CC(C)C)NC(=O)[C@H](Cc1ccc(O)cc1)NC(=O)[C@H](CCCCN)NC(=O)[C@H](CCCCN)NC(=O)[C@@H](NC(=O)[C@H](C)NC(=O)[C@H](CCSC)NC(=O)[C@H](CCC(N)=O)NC(=O)[C@H](CCCCN)NC(=O)[C@H](CCCN=C(N)N)NC(=O)[C@H](CC(C)C)NC(=O)[C@H](CCCN=C(N)N)NC(=O)[C@@H](NC(=O)[C@H](Cc1ccc(O)cc1)NC(=O)[C@H](CC(N)=O)NC(=O)[C@H](CC(=O)O)NC(=O)[C@H](C)NC(=O)[C@H](Cc1ccccc1)NC(=O)[C@@H](NC(=O)[C@H](C)NC(=O)[C@H](CC(=O)O)NC(=O)[C@H](CO)NC(=O)[C@@H](N)Cc1cnc[nH]1)C(C)C)[C@@H](C)O)C(C)C)C(=O)N[C@@H](CC(C)C)C(=O)N[C@@H](CC(N)=O)C(N)=O [VIP Ala7] | 1700 nM and 1120 nM and 3000 nM | 138 nM and 631 nM | 
5 | H-HSDAVFTDNYTRLRKQMAVAKYLNSILN-NH2 [VIP Ala20] | 10 nM and 12.6 nM and 21.9 nM |  | 
6 | H-HADAVFTDNYTRLRKQMAVKKYLNSILN-NH2 [VIP Ala2] | 3.4 nM and 3.5 nM and 2.1 nM |  | 
7 | H-HSDAVFTDNYTRLRKQMAVKKYANSILN-NH2 [VIP Ala23] | 1700 nM and 2820 nM and 2710 nM | 110 nM and 972 nM | 
8 | H-HSDAVFTDNYTRLRKQMAVKKYLASILN-NH2 [VIP Ala24] | 4.1 nM and 14.1 nM and 18.6 nM | 0.4 nM and 3.2 nM | 
9 | H-HSDAVFTNSYRKVLKRLSARKLLQDIL-NH2 [NSC_0] | 3000 nM |  | 1.7 nM and 7.7 nM and 8.9 nM
10 | H-HSDAVFTDNYTRLRKQMAVKAYLNSILN-NH2 [VIP Ala21] | 8.1 nM and 17 nM and 12.6 nM | 1.3 nM and 12.4 nM | 
11 | H-HSDAVFTDNYTRLRKQMAVKKYLNSILA-NH2 [VIP Ala28] | 34.7 nM and 21 nM and 27.2 nM |  | 
12 | H-HSDAVFTDNYTRLRKQMAVKKALNSILN-NH2 [VIP Ala22] | 3000 nM | 759 nM and 3000 nM | 

Continued, values first:

Row | Ki [1] | Ki [2] | Ki [3] | Compound
13 | 331 nM and 676 nM and 288 nM | 25.1 nM and 251 nM |  | H-HSDAVFTDNYTALRKQMAVKKYLNSILN-NH2 [VIP Ala12]
14 | 977 nM and 1150 nM and 2420 nM | 138 nM and 546 nM |  | H-HSAAVFTDNYTRLRKQMAVKKYLNSILN-NH2 [VIP Ala3]
15 | 19.1 nM and 40.7 nM and 38.4 nM | 1.9 nM and 16.6 nM |  | H-HSDAVFTDNYTRLRAQMAVKKYLNSILN-NH2 [VIP Ala15]
16 | 48.9 nM and 81.3 nM and 52.3 nM |  |  | H-HSDAVFTDNYTRARKQMAVKKYLNSILN-NH2 [VIP Ala13]
17 | 2.1 nM and 15.9 nM and 3.9 nM |  | 1200 nM and 1020 nM | CCCC[C@H](NC(=O)[C@H](CCC(N)=O)NC(=O)[C@H](CCCCN)NC(=O)[C@H](CCCNC(=N)N)NC(=O)[C@H](CC(C)C)NC(=O)[C@H](CCCCN)NC(=O)[C@@H](NC(=O)[C@H](Cc1ccc(O)cc1)NC(=O)[C@H](CC(N)=O)NC(=O)[C@H](CCC(=O)O)NC(=O)[C@@H](NC(=O)[C@H](Cc1ccccc1)NC(=O)[C@@H](NC(=O)[C@H](C)NC(=O)[C@H](CC(=O)O)NC(=O)[C@H](CO)NC(=O)[C@H](Cc1c[nH]cn1)NC(C)=O)C(C)C)[C@@H](C)O)[C@@H](C)O)C(=O)N[C@@H](C)C(=O)N[C@@H](C)C(=O)N[C@@H](CCCCN)C(=O)N[C@H]1CCCCNC(=O)C[C@@H](C(=O)N[C@@H](CC(C)C)C(=O)N[C@@H](CCCCN)C(=O)N[C@@H](CCCCN)C(=O)NCC(=O)NCC(=O)N[C@H](C(N)=O)[C@@H](C)O)NC(=O)[C@H](CC(N)=O)NC(=O)[C@H](CC(C)C)NC(=O)[C@H](Cc2ccc(O)cc2)NC1=O [Ac-L-His-L-Ser-L-Asp-L-Ala-L-Val-L-Phe-L-Thr-L-Glu-L-Asn-L-Tyr-L-Thr-L-Lys-L-Leu-L-Arg-L-Lys-L-Gln-L-Nle-L-Ala-L-Ala-L-Lys-L-Lys(1)-L-Tyr-L-Leu-L-Asn-L-Asp(1)-L-Leu-L-Lys-L-Lys-Gly-Gly-L-Thr-NH2] (Ac-HSDAVFTENYTKLRKQ[Nle]AAKKYLNDLKKGGT-NH2; lactam 21-25)
18 | 4.3 nM and 3.2 nM and 6 nM |  |  | H-HSDAVFTDAYTRLRKQMAVKKYLNSILN-NH2 [VIP Ala9]
19 | 4.4 nM and 2.7 nM and 13.3 nM |  |  | H-HSDAVFTANYTRLRKQMAVKKYLNSILN-NH2 [VIP Ala8]
20 | 209 nM and 251 nM and 559 nM | 75.7 nM and 479 nM |  | H-ASDAVFTDNYTRLRKQMAVKKYLNSILN-NH2 [VIP Ala1]
21 | 19.5 nM and 79.4 nM and 89.1 nM |  |  | H-HSDAVFTDNYTRLRKQMAVKKYLNSIAN-NH2 [VIP Ala27]
22 | 3000 nM | 724 nM and 2660 nM |  | H-HSDAVFTDNATRLRKQMAVKKYLNSILN-NH2 [VIP Ala10]
23 | 2.4 nM and 2.6 nM and 5 nM | 0.43 nM and 3.4 nM |  | H-HSDAVFTDNYTRLRKQMAAKKYLNSILN-NH2 [VIP Ala19]
24 |  | 2.3 nM and 5 nM |  | H-HSDAVFTDNYTRLRKQAAVKKYLNSILN-NH2 [VIP Ala17]
